From US10941157B2, “Pesticidal compositions and uses thereof” (Gilead Apollo, LLC, priority 2015, dated 2021)
Converted amounts (≈) assume the structure as drawn. Read-outs that look alike come from different tables or passages of the source.

Key:
Fusarium graminearum [1] = type: in vivo; conditions: spray on flowering Triticum aestivum cv. Samson, inoculated 24 hours after treatment, evaluated 14 days later
Phakopsora pachyrhizi = assay: Foliar protection test for Asian soybean rust control; type: in vivo; conditions: foliar application to soybean (Glycine max AG4832), percent disease area evaluated 14 days later
[2] = system: Blumeria graminis f. sp. hordei; assay: Early foliar disease control via seed treatment (barley powdery mildew); type: in vivo; conditions: seed treatment rate 0.025 mg/seed; barley inoculated 7 days after planting, evaluated 7 days later
Description: Barley seeds (Hordeum vulgare cv. Perry or Conlon) were treated with a test compound dissolved in pure acetone, in which the acetone solution (1 mL) was used per 50 seeds in glass jars in a fume hood. The seeds were swirled in the glass jars by hand until no obvious presence of acetone remained and the seeds were mostly dry. Plants were grown for 7 days in 2-inch square pots containing Metromix 200 medium amended with fertilizer. […] After inoculation with the pathogen of Blumeria graminis f. sp. hordei, plants were kept at conditions of 20 to 22° C., 200 uM of light, 70% humidity to facilitate infection and disease development. At 7 days after planting (1st true leaf fully expanded), the plants were moved to the cooler chamber and inoculated by shaking well-colonized, untreated stock plants above the treated material. […] Efficacy was evaluated in 7 days later by examining leaves for colonization and growth of powdery mildew. Each side of each leaf was assigned a severity rating of 0, 1, 5, 10, 25, 50, 75, or 100 percent diseased area. Table 14 lists the results of barley powdery mildew control upon seed treatment with test compounds.

Pythium ultimum = assay: Seed protectant for soybean seedling disease, P. ultimum; type: in vivo; conditions: soybean from treated seeds, 0.025 mg/seed, P. ultimum inoculated
Description: (§1) The pathogen of Rhizoctonia solani inoculum was grown on sterile sorghum; and the pathogen of Pythium ultimum inoculum was grown on white millet.
(§2) Soybean seeds (Glycine max cv. AG4832) were planted in 2.5-inch square pots containing Berger BM2 germination mix amended with fertilizer (e.g., 14-14-14). Pots with soil were inoculated with the pathogen of R. solani or P. ultimum at time of planting. A hole was pressed into the soil to a depth of about 2 to 3 cm; the inoculum was added to the hole, followed by the seed which was then covered with soil. Two seeds per pot were planted. Plants were grown in a growth chamber at conditions of 20 to 24° C., 14 hour light cycle, 500 uM of light, and 65% humidity. The pots inoculated with P. ultimum were sub-irrigated every day; and the pots inoculated with R. solani were sub-irrigated every other day.
(§3) Seedling emergence was captured at 7 and 14 days after seeding. At 14 days, the top of the plant was removed and fresh weight was recorded. The plant weights from the seeds treated with test compounds (e.g., in formulations) were compared to the ones either from the inoculated non-treated seeds or non-inoculated non-treated seeds. Table 10 lists the results of the R. solani control in soybean upon seed treatment with test compounds, and Table 11 lists the results of the P. ultimum control in soybean upon seed treatment with test compounds, respectively.

Puccinia triticina = assay: Foliar protection test for wheat leaf rust control; type: in vivo; conditions: foliar application to wheat (Triticum aestivum cv. Winterhawk), evaluated 10 days later
[3] = system: Fusarium virguliforme (Fv); assay: In vitro pathogen growth inhibition assay, Fv; type: cell-based
Method in brief: (§4)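 Value reported is the compound concentration reaching ≥90% growth inhibition, from OD readings at 24 and 48 h after blank subtraction, confirmed visually. Inoculum was spores diluted in 17% V8 medium, except Rs, using 1.5 mm mycelial plugs in ¼ PDB; actual compound concentration corrected via OD600.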

Fusarium graminearum [4] = type: in vivo; conditions: corn from treated seeds, 0.025 mg/seed, F. graminearum inoculated
[5] = system: Mycosphaerella graminicola (synthetic Septoria tritici); assay: Foliar protection test for wheat septoria leaf blotch control; type: in vivo; conditions: foliar spray on Triticum aestivum cv. WinterHawk, inoculated 1 hour after treatment, evaluated 16 days later
Septoria tritici (St) = assay: In vitro pathogen growth inhibition assay, St; type: cell-based; conditions: for IC90: Zymoseptoria tritici, 48 h
Method in brief: as §4

[6] = system: Fusarium moniliforme (Fm); assay: In vitro pathogen growth inhibition assay, Fm; type: cell-based; conditions: Fusarium verticillioides
Method in brief: as §4

[7] = system: Blumeria graminis f. sp. hordei; assay: Foliar protection test for barley powdery mildew control; type: in vivo; conditions: foliar spray on Hordeum vulgare cv. Perry, inoculated 24 hours after treatment, evaluated 7 days later
Method in brief: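 Protective foliar test: compound atomized onto both leaf surfaces of 6-day-old Hordeum vulgare cv. Perry, followed after 24 h by spore-cloud inoculation from colonized untreated plants. Disease rated on leaves 7 days on, plants held at 20 to 22° C and 70% RH.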

Rhizoctonia solani = assay: Seed protectant for soybean seedling disease, R. solani; type: in vivo; conditions: soybean from treated seeds, 0.025 mg/seed, R. solani inoculated
Description: as §1, §2, §3

Rhizoctonia solani (Rs) = assay: In vitro pathogen growth inhibition assay, Rs (mycelial plugs); type: cell-based; conditions: Rhizoctonia solani, 48 h, mycelial plugs
Method in brief: as §4

Sphaerotheca fuliginea = assay: Foliar protection for cucumber powdery mildew control; type: in vivo; conditions: foliar spray on Cucumis sativus cv. Straight Eight, inoculated 24 hours after treatment, evaluated 7 days later
Method in brief: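 Protective foliar spray on 10-day-old Straight Eight cucumbers, with S. fuliginea spores dusted from infected stock plants 24 h after treatment. Disease developed at 23–27 °C, 60% RH and a 16 h photoperiod. Leaves were rated for mildew growth after 7 days; test rates 10 ppm or below.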

Diplodia maydis (Dm) = assay: In vitro pathogen growth inhibition assay, Dm; type: cell-based; conditions: Stenocarpella maydis, 48 h
Method in brief: as §4

[8] = system: Phytophthora capsici (Pc); assay: In vitro pathogen growth inhibition assay, Pc; type: cell-based; conditions: 48 h
Method in brief: as §4

Botrtyis cinerea (Bc) = assay: In vitro pathogen growth inhibition assay, Bc; type: cell-based; conditions: 48 h
Method in brief: as §4

[9] = system: Collectotrichum graminicola (Cg); assay: In vitro pathogen growth inhibition assay, Cg; type: cell-based; conditions: 48 h
Method in brief: as §4

[10] = percentage of non-inoculated non-treated controls
[11] = ≥90% growth inhibition, 48 hours, vs 2% DMSO control, read-out: Compound Concentration (ppm) sufficient for ≥90% inhibition of Fv
[12] = ≥90% growth inhibition, 48 hours, vs 2% DMSO control, read-out: Compound Concentration (ppm) sufficient for ≥90% inhibition of Fm
[13] = ≥90% growth inhibition, 48 hours, vs 2% DMSO control, read-out: Compound Concentration (ppm) sufficient for ≥90% inhibition of Rs

For `CCOC(=O)c1sc2c(c1C)c(=O)n(C(C)(C)C(=O)NC(C)C)c(=O)n2C[C@H](OCCC#N)c1cc(F)ccc1OC` [Compound I-181, (R)-ethyl-1-(2-(2-cyanoethoxy)-2-(5-fluoro-2-methoxyphenyl)ethyl)-3-(1-(isopropylamino)-2-methyl-1-oxopropan-2-yl)-5-methyl-2,4-dioxo-1,2,3,4-tetrahydrothieno[2,3-d]pyrimidine-6-carboxylate], the “Wheat Fusarium Head Blight Control at a compound concentration of 25 ppm or lower” value (Fusarium graminearum [1]) was “B (from 50 to 69% control of wheat fusarium head blight)”, the “Asian Soybean Rust Control at a compound concentration of 25 ppm or lower” value (“Asian Soybean Rust Control … of 25 ppm or lower” for short) (Phakopsora pachyrhizi) was “B (from 50 to 69% control of Asian soybean rust)” and the “Barley Powdery Mildew Reduction (%)” value [2] was 57%. The “Plant Weight” value (Pythium ultimum; fresh weight at 14 days) was 4.73 g, the “Improvement in plant weight” value (Pythium ultimum; [10]) was 76% and the “Wheat Leaf Rust Control at a compound concentration of 10 ppm or lower” value (“Wheat Leaf Rust Control … of 10 ppm or lower” below) (Puccinia triticina) was “AA (≥85% control of wheat leaf rust)”. For the same compound, the IC90 [3, 11] was 0.4 µg/mL (≈ 0.664 µM), the “Plant Height” value (Fusarium graminearum [4]; Table 12) was 47.63 cm and the “Septoria Leaf Blotch Control at a compound concentration of 25 ppm or lower” value [5] was “B (from 50 to 69% control of wheat septoria leaf blotch)”. For the same compound, the “Compound Concentration (ppm) sufficient for ≥90% inhibition of St” value (Septoria tritici (St); ≥90% growth inhibition, 48 hours, vs 2% DMSO control) was no less than 10.0 ppm, the IC90 [6, 12] was 0.08 µg/mL (≈ 0.133 µM) and the “Barley Powdery Mildew Control at a compound concentration of 10 ppm or lower” value [7] was “AA (≥85% control of barley powdery mildew)”. The “Plant Weight” value (Rhizoctonia solani; fresh weight at 14 days) was 3.16 g, the “Improvement in plant weight” value (Rhizoctonia solani; [10]) was 39.4% and the IC90 (Rhizoctonia solani (Rs); [13]) was 0.08 µg/mL (≈ 0.133 µM). For the same compound, the “Cucumber Powdery Mildew Control at a compound concentration of 10 ppm or lower” value (Sphaerotheca fuliginea) was “AA (≥85% control of cucumber powdery mildew)”.

With `COc1ccc(F)cc1[C@H](Cn1c(=O)n(C(C)(C)C(=O)NC(C)C)c(=O)c2c(C)c(-n3nccn3)sc21)OC(C)C` [Compound I-020, (R)-2-(1-(2-(5-fluoro-2-methoxyphenyl)-2-isopropoxyethyl)-5-methyl-2,4-dioxo-6-(2H-1,2,3-triazol-2-yl)-1,4-dihydrothieno[2,3-d]pyrimidin-3 (2H)-yl)-N-isopropyl-2-methylpropanamide] the IC90 (Diplodia maydis (Dm); ≥90% inhibition, 48 hours vs 2% DMSO control, read-out: Compound Concentration (ppm) sufficient for ≥90% inhibition of growth, Dm) was 0.08 µg/mL (≈ 0.136 µM), the “Wheat Fusarium Head Blight Control at a compound concentration of 25 ppm or lower” value (Fusarium graminearum [1]) was “B (from 50 to 69% control of wheat fusarium head blight)” and the “Asian Soybean Rust Control … of 25 ppm or lower” value (Phakopsora pachyrhizi) was “B (from 50 to 69% control of Asian soybean rust)”. The “Barley Powdery Mildew Reduction (%)” value [2] was 91%, the “Wheat Leaf Rust Control … of 10 ppm or lower” value (Puccinia triticina) was “B (from 50 to 69% control of wheat leaf rust)” and the IC90 ([3]; ≥90% inhibition, 48 hours vs 2% DMSO control, read-out: Compound Concentration (ppm) sufficient for ≥90% inhibition of growth, Fv) was 0.4 µg/mL (≈ 0.682 µM). For the same compound, the “Plant Height” value (Fusarium graminearum [4]; Table 12) was 40.53 cm, the “Septoria Leaf Blotch Control at a compound concentration of 25 ppm or lower” value [5] was “B (from 50 to 69% control of wheat septoria leaf blotch)” and the IC90 ([8]; ≥90% inhibition, 48 hours vs 2% DMSO control, read-out: Compound Concentration (ppm) sufficient for ≥90% inhibition of growth, Pc) was greater than 50 µg/mL. The IC90 (Septoria tritici (St); ≥90% inhibition, 48 hours vs 2% DMSO control, read-out: Compound Concentration (ppm) sufficient for ≥90% inhibition of growth, St) was no less than 2 µg/mL, the IC90 ([6]; ≥90% inhibition, 48 hours vs 2% DMSO control, read-out: Compound Concentration (ppm) sufficient for ≥90% inhibition of growth, Fm) was 0.08 µg/mL (≈ 0.136 µM) and the “Barley Powdery Mildew Control at a compound concentration of 10 ppm or lower” value [7] was “AA (≥85% control of barley powdery mildew)”. The IC90 (Botrtyis cinerea (Bc); ≥90% inhibition, 48 hours vs 2% DMSO control, read-out: Compound Concentration (ppm) sufficient for ≥90% inhibition of growth, Bc) was no less than 0.08 µg/mL, the IC90 (Rhizoctonia solani (Rs); ≥90% inhibition, 48 hours vs 2% DMSO control, read-out: Compound Concentration (ppm) sufficient for ≥90% inhibition of growth, Rs) was 0.08 µg/mL (≈ 0.136 µM) and the “Cucumber Powdery Mildew Control at a compound concentration of 10 ppm or lower” value (Sphaerotheca fuliginea) was “AA (≥85% control of cucumber powdery mildew)”. The IC90 ([9]; ≥90% inhibition, 48 hours vs 2% DMSO control, read-out: Compound Concentration (ppm) sufficient for ≥90% inhibition of growth, Cg) was 0.08 µg/mL (≈ 0.136 µM).

With `COc1ccc(F)cc1[C@H](Cn1c(=O)n([C@H](C)C(=O)N(C)C(C)C)c(=O)c2c(C)c(-n3nccn3)sc21)OCCC#N` [Compound I-205, (R)-2-(1-((R)-2-(2-cyanoethoxy)-2-(5-fluoro-2-methoxyphenyl)ethyl)-5-methyl-2,4-dioxo-6-(2H-1,2,3-triazol-2-yl)-1,4-dihydrothieno[2,3-d]pyrimidin-3 (2H)-yl)-N-isopropyl-N-methylpropanamide] the IC90 (Diplodia maydis (Dm); ≥90% growth inhibition, 48 hours, vs 2% DMSO control, read-out: Compound Concentration (ppm) sufficient for ≥90% inhibition of Dm) was no less than 0.08 µg/mL, the “Wheat Fusarium Head Blight Control at a compound concentration of 25 ppm or lower” value (Fusarium graminearum [1]) was “C (from 25 to 49% control of wheat fusarium head blight)” and the “Asian Soybean Rust Control … of 25 ppm or lower” value (Phakopsora pachyrhizi) was “AA (≥85% control of Asian soybean rust)”. The “Wheat Leaf Rust Control … of 10 ppm or lower” value (Puccinia triticina) was “AA (≥85% control of wheat leaf rust)”, the IC90 [3, 11] was 0.4 µg/mL (≈ 0.669 µM) and the “Plant Height” value (Fusarium graminearum [4]; Table 13) was 41.47 cm. For the same compound, the “Septoria Leaf Blotch Control at a compound concentration of 25 ppm or lower” value [5] was “AA (≥85% control of wheat septoria leaf blotch)”, the IC90 ([8]; ≥90% growth inhibition, 48 hours, vs 2% DMSO control, read-out: Compound Concentration (ppm) sufficient for ≥90% inhibition of Pc) was greater than 50 µg/mL and the IC90 (Septoria tritici (St); ≥90% growth inhibition, 48 hours, vs 2% DMSO control, read-out: Compound Concentration (ppm) sufficient for ≥90% inhibition of St) was greater than 50 µg/mL. The IC90 [6, 12] was 0.4 µg/mL (≈ 0.669 µM), the “Barley Powdery Mildew Control at a compound concentration of 10 ppm or lower” value [7] was “AA (≥85% control of barley powdery mildew)” and the IC90 (Botrtyis cinerea (Bc); ≥90% growth inhibition, 48 hours, vs 2% DMSO control, read-out: Compound Concentration (ppm) sufficient for ≥90% inhibition of Bc) was 0.4 µg/mL (≈ 0.669 µM). For the same compound, the IC90 (Rhizoctonia solani (Rs); [13]) was 0.08 µg/mL (≈ 0.134 µM), the “Cucumber Powdery Mildew Control at a compound concentration of 10 ppm or lower” value (Sphaerotheca fuliginea) was “AA (≥85% control of cucumber powdery mildew)” and the IC90 ([9]; ≥90% growth inhibition, 48 hours, vs 2% DMSO control, read-out: Compound Concentration (ppm) sufficient for ≥90% inhibition of Cg) was 0.4 µg/mL (≈ 0.669 µM).
